Where a name gives a salt, the structure may show the parent alone.
Test: in vitro
Conditions: rat, gh3-tre-luc cells

Row | Structure (SMILES) | CC50 at 24 h (AC50 (uM) modified / 1000) | also measured
1 | CC(NC(C)(C)C)C(=O)c1cccc(Cl)c1 (stereo not shown) [Bupropion hydrochloride] | > 50 µM | 
2 | N[C@@H]1CN(c2c(F)cc3c(=O)c(C(=O)O)cn([C@@H]4C[C@@H]4F)c3c2Cl)CC12CC2 [Sitafloxacin] | > 50 µM | 
3 | CC1CN(c2ccccc2)NC1=O (stereo not shown) [4-Methyl-1-phenylpyrazolidin-3-one] | > 90 µM | 
4 | Cc1cc(C)c(S(=O)(=O)O)cc1N=Nc1cc(S(=O)(=O)O)c2ccccc2c1O [FD&C Red 4] | 33.6 µM | 
5 | O=c1[nH]c2ccccc2o1 [2-Benzoxazolinone] | > 90 µM | 
6 | CC(=O)O[C@H]1CC[C@@]2(C)C(=CC[C@@H]3[C@@H]2CC[C@]2(C)C(=O)CC[C@@H]32)C1 [Dehydroepiandrosterone acetate] |  | CC50 at 24 h (AC50 (uM) modified / 1000, Tox21_110001=Tox21_110485, viability, 1 nM T3 present, 24 h): > 20 µM; CC50 at 24 h (AC50 (uM) modified / 1000, Tox21_110001=Tox21_200963, viability, 1 nM T3 present, 24 h): > 90 µM
7 | N#Cc1ccccc1C#N [1,2-Benzenedicarbonitrile] | > 70 µM | 
8 | C=CCc1ccc(O)c(OC)c1 [Eugenol] | > 90 µM | 
9 | O=C(O)C(F)(F)C(F)(F)C(F)(F)C(F)(F)C(F)(F)C(F)(F)C(F)(F)C(F)(F)C(F)(F)C(F)(F)F [Perfluoroundecanoic acid] |  | CC50 at 24 h (AC50 (uM) modified / 1000, Tox21_110001=Tox21_300606, viability, 1 nM T3 present, 24 h): > 90 µM
10 | CC#CCC(C)[C@H](O)/C=C/[C@@H]1[C@H]2C/C(=C/CCCC(=O)O)C[C@H]2C[C@H]1O (stereo partly shown) [Iloprost] | > 50 µM | 
11 | CCCC(=O)OCCC(C)CCC=C(C)C (stereo not shown) [Citronellyl butyrate] | > 90 µM | 
12 | c1ccc(Sc2ccccc2)cc1 [Diphenyl sulfide] | > 90 µM | 
13 | CC(O)CN(CCN(CC(C)O)CC(C)O)CC(C)O (stereo not shown) [N,N,N',N'-Tetrakis(2-Hydroxypropyl)ethylenediamine] | > 90 µM | 
14 | Cc1oc(=O)oc1CN1CCN(c2cc3c(cc2F)c(=O)c(C(=O)O)c2n3C(C)S2)CC1 (stereo not shown) [Prulifloxacin] | > 50 µM | 
15 | CC(=O)C1CCCCC1=O (stereo not shown) [Cyclohexanone,2-acetyl-] | > 90 µM | 
16 | O=C(NC(=O)c1ccccc1Cl)Nc1ccc(OC(F)(F)F)cc1 [Triflumuron] | > 90 µM | 
17 | C[Si]1(C)O[Si](C)(C)O[Si](C)(C)O[Si](C)(C)O1 [Octamethylcyclotetrasiloxane] | > 90 µM | 
18 | Cc1nc2sccn2c(=O)c1CCN1CCC(=C(c2ccc(F)cc2)c2ccc(F)cc2)CC1 [Ritanserin] | 28.7 µM | 
19 | CC(C)CCOC(=O)c1ccccc1 [Isopentyl benzoate] | > 90 µM | 
20 | CC(O)CN(CCCN(C)C)CCCN(C)C (stereo not shown) [1-{Bis[3-(dimethylamino)propyl]amino}propan-2-ol] | > 90 µM | 
21 | CC1CCCCN1CCCOC(=O)c1ccccc1 (stereo not shown) [Piperocaine hydrochloride] | > 50 µM | 
22 | CCN1CCN(c2cc3c(cc2F)c(=O)c(C(=O)O)cn3C2CC2)CC1 [Enrofloxacin] | > 50 µM | 
23 | CC1=NNC(=O)N(/N=C/c2cccnc2)C1 [Pymetrozine] | > 90 µM | 

Row | Structure (SMILES) | CC50 at 24 h (AC50 (uM) modified / 1000) | also measured
24 | Oc1cc(Cl)c(Cl)c(Cl)c1Cl [2,3,4,5-Tetrachlorophenol] |  | CC50 at 24 h (AC50 (uM) modified / 1000, Tox21_110001=Tox21_200105, viability, 1 nM T3 present, 24 h): 29.2 µM
25 | CS/C(C)=N\OC(=O)N(C)SN(C)C(=O)O/N=C(\C)SC [Thiodicarb] | 39.7 µM | 
26 | CCCN1CCCC[C@H]1C(=O)Nc1c(C)cccc1C [Ropivacaine hydrochloride] | > 50 µM | 
27 | CC(C)(C)c1csc(-c2cc3cc(OCc4ccccc4CC(=O)O)ccc3o2)n1 [FR150011] | 79.7 µM | 
28 | CCC(C)COC(=O)CC(C)C (stereo not shown) [2-Methylbutyl isovalerate] | > 90 µM | 
29 | CCOc1nc2cccc(C(=O)OC(C)OC(=O)OC3CCCCC3)c2n1Cc1ccc(-c2ccccc2-c2nnn[nH]2)cc1 (stereo not shown) [Candesartan cilexetil] | 31.1 µM | 
30 | c1ccc(C(O[C@@H]2CCCN(CCc3ccc4c(c3)OCO4)C2)c2ccccc2)cc1 [Zamifenacin fumarate] | 26.4 µM | 
31 | CN(C)N=Nc1ccccc1 [1-Phenyl-3,3-dimethyltriazene] | > 90 µM | 
32 | CCCCCCCCCCCCCCCCCCO [1-Octadecanol] | > 50 µM | 
33 | CCC1(CCC(C)C)C(=O)NC(=O)NC1=O [Amobarbital] | > 90 µM | 
34 | CC[N+](CC)(CC)CC [Tetraethylammonium chloride] | > 100 µM | 
35 | CCCCCCCCCCCC[n+]1ccc2ccccc2c1 [2-Dodecylisoquinolinium tosylate] | 5.61 µM | 
36 | Nc1cnn([C@@H]2O[C@H](CO)[C@@H](O)[C@H]2O)c(=O)n1 [6-Azacytidine] | > 90 µM | 
37 | c1ccc2ncccc2c1 [Quinoline] | > 90 µM | 
38 | CO[Si](CCCS)(OC)OC [3-Mercaptopropyltrimethoxysilane] | > 90 µM | 
39 | c1ccc2c(c1)Nc1ccccc1S2 [Phenothiazine] | > 90 µM | 
40 | N#CS [Potassium thiocyanate] | > 90 µM | 
41 | CCCCC/C=C\C=C\C(=O)OCC [Ethyl (2E,4Z)-deca-2,4-dienoate] | 29.3 µM | 
42 | O=C(O)/C=C\C(=O)O [Maleic acid] | > 90 µM | 
43 | CC1(C)[C@@H](O[C@H]2O[C@H](C(=O)O)[C@@H](O)[C@H](O)[C@H]2O[C@@H]2O[C@H](C(=O)O)[C@@H](O)[C@H](O)[C@H]2O)CC[C@]2(C)[C@H]3C(=O)C=C4[C@@H]5C[C@@](C)(C(=O)O)CC[C@]5(C)CC[C@@]4(C)[C@]3(C)CC[C@@H]12 [Ammonium glycyrrhizinate trihydrate] | > 70 µM | 
44 | CC(C)CCC[C@@H](C)[C@H]1CC[C@H]2[C@@H]3CC[C@@H]4C[C@H](O)CC[C@]4(C)[C@H]3CC[C@]12C [(3alpha,5beta)-Cholestan-3-ol] | > 50 µM | 
45 | CC(C)(C)NCC(O)c1cc(Cl)c(N)c(C(F)(F)F)c1 (stereo not shown) [Mabuterol hydrochloride] | 22.3 µM | 
46 | Cc1occc1S [2-Methyl-3-furanthiol] | > 90 µM | 

Row | Structure (SMILES) | CC50 at 24 h (AC50 (uM) modified / 1000) | also measured
47 | C[N+]1(C)CCCC(OC(=O)C(O)(c2ccccc2)c2ccccc2)C1 (stereo not shown) [Mepenzolate bromide] | > 20 µM | 
48 | NCCN1CCOCC1 [2-Morpholinoethylamine] | > 90 µM | 
49 | COC(=O)[C@@H]1[C@H]2C[C@H]3c4[nH]c5ccccc5c4CCN3C[C@@H]2CC[C@@H]1O [Yohimbine] | > 50 µM | 
50 | CCCCOC(=O)c1ccc(N)cc1 [Butyl 4-aminobenzoate] | > 50 µM | 
51 | CNC(C)(C)Cc1ccccc1 [Mephentermine hemisulfate] |  | CC50 at 24 h (AC50 (uM) modified / 1000, Tox21_110001=Tox21_110501, viability, 1 nM T3 present, 24 h): > 20 µM
52 | C=CCc1cc(OC)c(O)c(C(=O)NCCO)c1 [Alibendol] | > 50 µM | 
53 | CCCN(C1CCN(C(=O)C2CCNCC2)CC1)[C@@H]1CCc2ccc(OC)cc2C1 [PharmaGSID_48509] | 69.1 µM | 
54 | c1cc[n+]2c(c1)-c1cccc[n+]1CC2 [Diquat dibromide monohydrate] | > 50 µM | 
55 | C[N+](C)(C)CCOC(N)=O [Carbachol] | > 50 µM | 
56 | CC(N/C(=N\C#N)Nc1ccncc1)C(C)(C)C (stereo not shown) [Pinacidil monohydrate] | > 50 µM | 
57 | CCCCC1C(=O)NC(=O)N(C2CCCCC2)C1=O (stereo not shown) [Bucolome] |  | CC50 at 24 h (AC50 (uM) modified / 1000, Tox21_110001=Tox21_113339, viability, 1 nM T3 present, 24 h): > 50 µM
58 | CC(=O)c1ccc2c(c1)N(CCCN1CCC(CCO)CC1)c1ccccc1S2 [Piperacetazine] | 10.7 µM | 
59 | CN(C)/N=N/c1[nH]cnc1C(N)=O [Dacarbazine] | > 90 µM | 
60 | Cc1nc2ccc(CN(C)c3ccc(C(=O)N[C@@H](CCC(=O)O)C(=O)O)s3)cc2c(=O)[nH]1 [Raltitrexed] | > 50 µM | 
61 | CN1[C@@H]2CC[C@H]1CC(OC1c3ccccc3CCc3ccccc31)C2 (stereo partly shown) [Deptropine citrate] | 12.2 µM | 
62 | CCCCCCCCC(CCCCCC)C(=O)O (stereo not shown) [2-Hexyldecanoic acid] | > 90 µM | 
63 | CC[C@H]1OC(=O)C[C@@H](O)[C@H](C)[C@@H](O[C@@H]2O[C@H](C)[C@@H](O)[C@H](N(C)C)[C@H]2O)[C@@H](CCN2C[C@H](C)C[C@H](C)C2)C[C@@H](C)C(=O)/C=C/C(C)=C/[C@@H]1CO[C@@H]1O[C@H](C)[C@@H](O)[C@@H](OC)[C@H]1OC [Tilmicosin] | > 50 µM | 
64 | CC[C@@H]([C@H](C)O)n1ncn(-c2ccc(N3CCN(c4ccc(OC[C@@H]5CO[C@@](Cn6cncn6)(c6ccc(F)cc6F)C5)cc4)CC3)cc2)c1=O [Posaconazole] | 26.4 µM | 
65 | ClC(Cl)=C(Cl)C(Cl)=C(Cl)Cl [Hexachloro-1,3-butadiene] | > 90 µM | 
66 | CC(=O)Nc1cccc(O)c1 [3-Acetamidophenol] | > 90 µM | 
67 | CC(C)CON=O [Isobutyl nitrite] |  | CC50 at 24 h (AC50 (uM) modified / 1000, Tox21_110001=Tox21_202411, viability, 1 nM T3 present, 24 h): > 90 µM; CC50 at 24 h (AC50 (uM) modified / 1000, Tox21_110001=Tox21_302863, viability, 1 nM T3 present, 24 h): > 30 µM
68 | O=C(O)CCCCCC(=O)O [Heptanedioic acid] | > 90 µM | 

Reference: paper PMC6792352, “Limited Chemical Structural Diversity Found to Modulate Thyroid Hormone Receptor in the Tox21 Chemical Library” (Environmental Health Perspectives, 2019)
